From ChEMBL document CHEMBL1201862, “PubChem BioAssay data set” (2004)
Calls of active or inactive are those of the source.

Tests used:
[1] = molecular target: CAAX prenyl protease 2 (Homo sapiens, UniProt Q9Y256); experiment: inhibition of Ras-converting CAAX protease Rce1 – biochemical, yeast membranes, quenched-peptide fluorescence, cherry-pick, dose response (AID 588849)
[2] = molecular target: Trypsin (Sus scrofa, UniProt P00761); experiment: trypsin protease activity blockade – biochemical, quenched peptide fluorescence, cherry-pick, selectivity assay for Rce1 protease inhibitor project, dose response (AID 488789)
Sequence of Trypsin (P00761 whole entry): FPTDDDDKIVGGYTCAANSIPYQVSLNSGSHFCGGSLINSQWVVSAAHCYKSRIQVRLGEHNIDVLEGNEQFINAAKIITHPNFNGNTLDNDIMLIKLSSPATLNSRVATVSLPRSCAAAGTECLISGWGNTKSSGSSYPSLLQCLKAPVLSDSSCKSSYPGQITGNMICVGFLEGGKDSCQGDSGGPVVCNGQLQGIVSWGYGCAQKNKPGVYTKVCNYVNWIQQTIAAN

[3] = molecular target: CAAX prenyl protease 2 (Saccharomyces cerevisiae S288c, UniProt Q03530); type: biochemical
Sequence of CAAX prenyl protease 2 (Saccharomyces cerevisiae S288c, UniProt Q03530) (Q03530 whole entry): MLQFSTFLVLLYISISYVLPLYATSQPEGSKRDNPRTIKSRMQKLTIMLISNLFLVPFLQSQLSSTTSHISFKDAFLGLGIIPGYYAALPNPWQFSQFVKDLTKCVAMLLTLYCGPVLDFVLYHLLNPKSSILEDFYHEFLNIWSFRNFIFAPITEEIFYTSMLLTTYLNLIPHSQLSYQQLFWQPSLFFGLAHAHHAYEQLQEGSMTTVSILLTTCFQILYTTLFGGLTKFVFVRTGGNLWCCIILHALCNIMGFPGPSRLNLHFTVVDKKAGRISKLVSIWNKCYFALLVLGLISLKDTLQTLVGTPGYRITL

[4] = molecular target: T1, Endoribonuclease toxin MazF (Escherichia coli K-12, UniProt P0AE70); experiment: substrate-only fluorescence increase artefacts – biochemical, single-stranded RNase substrate, counter-screen for MazEF activator project, dose response (AID 588502); type: functional
T1 sequence (P0AE70 whole entry): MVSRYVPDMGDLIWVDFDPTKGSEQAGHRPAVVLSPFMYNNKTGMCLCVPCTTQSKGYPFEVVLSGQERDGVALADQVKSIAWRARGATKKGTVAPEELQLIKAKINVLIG

[5] = molecular target: T1, Endoribonuclease toxin MazF; experiment: activation of MazEF endoribonuclease cleavage – biochemical, fluorescence, single-stranded RNA substrate, uHTS hits, dose response (AID 588481); type: functional
[6] = Luminescence Cell-Based Dose Retest to Confirm Inhibitors of Cancer Stem Cells. [Related pubchem assays (depositor defined):AID2717, AID2721]; type: functional; conditions: Homo sapiens
[7] = test system: Streptococcus; experiment: GAS UMAA2166 growth inhibition – luminescence, BacTiterGlo, counter-screen for streptokinase expression inhibitor project, dose response (AID 1915); type: functional, organism-based;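 further: potency for reduction of bacterial viability or growth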
[8] = test system: Streptococcus; experiment: Luminescence Microorganism-Based Dose Response Follow up to Identify Compounds Cytotoxic to Streptococcus. [Related pubchem assays: 1677 (Project Summary), 1915, 1914, 1902 (Retest at Dose), 1900 (Counter Screen), 1662 (Primary HTS)]; type: functional, organism-based
[9] = viability loss of HMLE_sh_eGFP cells – cell-based, luminescence, counter-screen for HMLE_sh_ECad selective toxicity project, dose response (AID 463074); type: functional, Homo sapiens;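 further: HMLE human mammary epithelial cells expressing control shRNA against eGFP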
[10] = molecular target: T2, Streptokinase A (Streptococcus pyogenes serotype M1, UniProt P10520); experiment: viability-normalized secreted streptokinase activity reduction – plasminogen activation absorbance, OD405, dose response (AID 1914); type: functional, Streptococcus pyogenes M1 GAS;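 further: secreted streptokinase activity via plasminogen activation per viability signal from cell pellet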
T2 sequence (P10520 whole entry): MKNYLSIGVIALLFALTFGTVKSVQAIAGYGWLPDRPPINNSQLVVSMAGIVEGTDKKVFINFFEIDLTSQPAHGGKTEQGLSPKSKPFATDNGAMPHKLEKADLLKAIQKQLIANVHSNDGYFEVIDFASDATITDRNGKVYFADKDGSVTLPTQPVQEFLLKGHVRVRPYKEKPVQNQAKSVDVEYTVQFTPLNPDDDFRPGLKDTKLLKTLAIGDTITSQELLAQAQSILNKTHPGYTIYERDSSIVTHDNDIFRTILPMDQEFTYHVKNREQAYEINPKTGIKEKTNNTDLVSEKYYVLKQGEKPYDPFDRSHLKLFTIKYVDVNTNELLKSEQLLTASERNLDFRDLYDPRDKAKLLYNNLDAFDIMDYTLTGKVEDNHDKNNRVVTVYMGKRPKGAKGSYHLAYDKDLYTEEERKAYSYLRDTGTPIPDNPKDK

[11] = test system: Streptococcus sp. 'group A'; experiment: Streptococcus pyogenes SK(-)GAS viability under kanamycin – luminescence, BacTiterGlo, confirmation, counter-screen for streptokinase expression inhibitor project, dose response (AID 1900); type: functional, organism-based
[12] = test system: Escherichia coli; experiment: microbe, parasite or virus in culture

Sequence of CAAX prenyl protease 2 (Homo sapiens, UniProt Q9Y256) (Q9Y256 whole entry): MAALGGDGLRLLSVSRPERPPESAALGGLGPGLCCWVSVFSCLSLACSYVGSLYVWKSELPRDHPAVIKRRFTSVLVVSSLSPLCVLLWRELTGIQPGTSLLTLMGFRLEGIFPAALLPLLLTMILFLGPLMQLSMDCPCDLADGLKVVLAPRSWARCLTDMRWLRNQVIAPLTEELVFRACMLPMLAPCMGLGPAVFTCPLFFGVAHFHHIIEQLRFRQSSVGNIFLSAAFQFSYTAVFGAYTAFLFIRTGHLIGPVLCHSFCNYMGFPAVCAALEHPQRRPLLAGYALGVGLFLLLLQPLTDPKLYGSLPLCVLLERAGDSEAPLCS

Question: For `CCN(CC)c1ccc(/C=N/NC(=S)NCc2ccc(OC)cc2)cc1`, which AC50 [1] is on record?
Answer: 13.6 µM (active)

Question: What about the AC50 [2] of the same compound?
Answer: 7.25 µM (active)

Question: What about the AC50 [3] of the same compound?
Answer: 24.8 µM (active)

Question: For `C=CCn1c(=N)c(S(=O)(=O)c2ccc(C)c(C)c2)cc2c(=O)n3ccccc3nc21`, which EC50 [4] is on record?
Answer: 52.2 µM (inactive)

Question: What about the EC50 [5] of the same compound?
Answer: 31.9 µM (inactive)

Question: Which AC50 [6] does the source give for `CC1CC(C)CN(c2ncc3c(n2)CC(c2ccccc2Cl)CC3=O)C1` (stereo not drawn) here?
Answer: 4.15 µM (active)

Question: And the EC50 [7]?
Answer: > 150 µM (not active)

Question: What about the EC50 [8] of the same compound?
Answer: > 500 µM (not active)

Question: What about the AC50 [9] of the same compound?
Answer: 30.2 µM (active)

Question: What about the EC50 [10] of the same compound?
Answer: 10.2 µM (active)

Question: And the EC50 [11]?
Answer: 7.25 µM (active)

Question: For `COc1ccc(-c2cc([C@H]3[C@@H]4C=CCC[C@@]4(C)C(=O)N3Cc3ccccc3)ccc2F)cc1`, which AC50 [6] is on record?
Answer: 3.42 µM (active)

Question: What about the AC50 [12] of the same compound?
Answer: 121 µM (active)
